These results are taken from ChEMBL document CHEMBL1201862, “PubChem BioAssay data set” (2004).

Active and inactive are the calls of the source.

Assay [1] has as its target Photoreceptor-specific nuclear receptor (Homo sapiens, UniProt Q9Y5X4). The class given is functional, cell-based.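 Further: CHO-S cells with Gal4-NCOR and VP16-NR2E3 two-hybrid luciferase reporter.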
Assay [2] has as its target Large T antigen (Simian virus 40, UniProt P03070). The class given is functional, Betapolyomavirus macacae.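 Further: Confirmatory-stage PubChem screen for compounds that inhibit SV40 T antigen.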
Assay [3] addresses FAD-linked sulfhydryl oxidase ALR (Homo sapiens, UniProt P55789). The assay is described as follows: inhibitors of human ALR sulfhydryl oxidase, dose response, biochemical, H2O2 detection, luminescence, cherry-pick (AID 493248).
In assay [4] the target is Tyrosine-protein phosphatase non-receptor type 11 (Homo sapiens, UniProt Q06124). Put plainly: SHP2 phosphatase inhibition, dose response, selectivity assay for STEP inhibitor project, biochemical (AID 602367). Type of assay: functional. The following applies: read-out: IC50_Mean.
In assay [5] the target is Tyrosine-protein phosphatase non-receptor type 5 (Homo sapiens, UniProt P54829). Put plainly: STEP phosphatase inhibitors, confirmation, biochemical, fluorescence intensity, uHTS hits (AID 602372). The class given is functional. The conditions noted are these: read-out: IC50_Mean.
The target of assay [6] is Dual specificity protein phosphatase 3 (Homo sapiens, UniProt P51452). Put plainly: VHR phosphatase inhibition, dose response, selectivity assay for STEP inhibitor project, biochemical (AID 602374). The class given is functional. The conditions noted are these: read-out: IC50_Mean.
The target in assay [7] is T1, Tyrosine-protein phosphatase non-receptor type 22 (Homo sapiens, UniProt Q9Y2R2).
T1 sequence (Q9Y2R2 whole entry): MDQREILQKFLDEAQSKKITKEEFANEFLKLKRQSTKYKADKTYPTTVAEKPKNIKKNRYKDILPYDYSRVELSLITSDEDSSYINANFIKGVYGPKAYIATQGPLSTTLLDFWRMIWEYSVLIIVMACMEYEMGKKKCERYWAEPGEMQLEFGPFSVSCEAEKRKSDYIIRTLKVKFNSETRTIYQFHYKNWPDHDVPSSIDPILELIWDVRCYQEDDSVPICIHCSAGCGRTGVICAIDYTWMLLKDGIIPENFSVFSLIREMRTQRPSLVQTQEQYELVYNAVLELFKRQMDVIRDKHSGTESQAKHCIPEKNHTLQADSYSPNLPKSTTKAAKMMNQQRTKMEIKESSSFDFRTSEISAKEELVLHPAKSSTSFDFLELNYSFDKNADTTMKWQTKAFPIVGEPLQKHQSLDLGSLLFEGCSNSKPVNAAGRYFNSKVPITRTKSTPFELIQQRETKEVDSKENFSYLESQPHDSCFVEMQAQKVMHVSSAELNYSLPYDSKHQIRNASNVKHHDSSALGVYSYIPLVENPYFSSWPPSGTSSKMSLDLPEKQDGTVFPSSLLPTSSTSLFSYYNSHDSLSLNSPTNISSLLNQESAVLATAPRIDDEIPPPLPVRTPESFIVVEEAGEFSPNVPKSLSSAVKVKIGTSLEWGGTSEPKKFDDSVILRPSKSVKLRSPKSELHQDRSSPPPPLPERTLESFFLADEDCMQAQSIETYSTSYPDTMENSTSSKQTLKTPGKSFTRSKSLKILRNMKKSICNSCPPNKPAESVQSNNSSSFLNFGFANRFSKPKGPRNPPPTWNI
Put plainly: PTPN22 phosphatase inhibition, dose response, selectivity assay for STEP inhibitor project, biochemical (AID 624241). Type of assay: functional.

Assay [8] addresses T2, Sentrin-specific protease 1 (Homo sapiens, UniProt Q9P0U3).
T2 sequence (Q9P0U3 whole entry): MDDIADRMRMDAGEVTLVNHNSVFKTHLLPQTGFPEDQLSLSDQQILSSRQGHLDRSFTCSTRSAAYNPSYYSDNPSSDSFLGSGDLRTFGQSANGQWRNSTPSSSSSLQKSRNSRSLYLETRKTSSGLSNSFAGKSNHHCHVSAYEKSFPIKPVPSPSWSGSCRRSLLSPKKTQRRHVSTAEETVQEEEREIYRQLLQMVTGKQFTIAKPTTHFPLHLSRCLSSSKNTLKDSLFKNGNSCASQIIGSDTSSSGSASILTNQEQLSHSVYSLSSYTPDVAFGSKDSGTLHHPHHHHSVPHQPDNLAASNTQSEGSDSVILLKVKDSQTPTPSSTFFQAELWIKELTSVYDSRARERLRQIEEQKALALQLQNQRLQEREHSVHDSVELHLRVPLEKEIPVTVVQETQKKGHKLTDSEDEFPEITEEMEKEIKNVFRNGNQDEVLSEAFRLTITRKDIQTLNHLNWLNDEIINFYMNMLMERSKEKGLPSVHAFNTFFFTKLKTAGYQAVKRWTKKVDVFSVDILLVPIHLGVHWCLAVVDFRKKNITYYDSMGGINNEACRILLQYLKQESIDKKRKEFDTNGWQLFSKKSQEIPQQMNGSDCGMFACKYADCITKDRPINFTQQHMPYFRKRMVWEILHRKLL
Put plainly: potency of human SENP1 inhibitors, dose response, biochemical, kinetic FRET (AID 651697). The class given is functional. The following applies: read-out: IC50_Mean.

Assay [9] concerns the target T2, Sentrin-specific protease 1. Put plainly: Dose response confirmation of small molecule inhibitors of the catalytic domain of the SUMO protease, SENP1 in a FRET assay. The class given is functional. The following applies: read-out: IC50_Mean.
A short description of assay [10]: cytotoxicity toward NIH3T3 fibroblasts, dose response, counter-screen, cell-based, ATP luminescence, mouse fibroblasts (AID 2010).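 Further: cells exposed to compound for about 90 hours before reading.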 Type of assay: functional.
The target of assay [11] is T3, DNA repair protein RAD52 homolog (Homo sapiens, UniProt P43351).
T3 sequence (P43351 whole entry): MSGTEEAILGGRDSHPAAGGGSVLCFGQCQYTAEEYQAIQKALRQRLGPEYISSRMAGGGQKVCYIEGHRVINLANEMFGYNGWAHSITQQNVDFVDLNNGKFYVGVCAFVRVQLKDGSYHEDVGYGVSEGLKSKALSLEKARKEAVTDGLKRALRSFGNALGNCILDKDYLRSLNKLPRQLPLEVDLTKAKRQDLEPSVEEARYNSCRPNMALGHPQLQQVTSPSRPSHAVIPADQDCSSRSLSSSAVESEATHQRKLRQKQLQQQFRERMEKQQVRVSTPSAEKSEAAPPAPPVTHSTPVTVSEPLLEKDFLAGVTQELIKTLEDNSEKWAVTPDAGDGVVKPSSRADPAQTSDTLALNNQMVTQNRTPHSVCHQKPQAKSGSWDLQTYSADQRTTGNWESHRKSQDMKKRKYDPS
Type of assay: functional, biochemical.

In assay [12] the target is DNA repair and recombination protein RAD54-like (Homo sapiens, UniProt Q92698). The assay is described as follows: inhibitors of human RAD54 branch migration, confirmation, biochemical, fluorescence, cherry-picked samples, dose series (AID 651657). Type of assay: functional.
Assay [13] addresses T4, Protein skinhead-1 (Caenorhabditis elegans, UniProt P34707).
T4 sequence (P34707 whole entry): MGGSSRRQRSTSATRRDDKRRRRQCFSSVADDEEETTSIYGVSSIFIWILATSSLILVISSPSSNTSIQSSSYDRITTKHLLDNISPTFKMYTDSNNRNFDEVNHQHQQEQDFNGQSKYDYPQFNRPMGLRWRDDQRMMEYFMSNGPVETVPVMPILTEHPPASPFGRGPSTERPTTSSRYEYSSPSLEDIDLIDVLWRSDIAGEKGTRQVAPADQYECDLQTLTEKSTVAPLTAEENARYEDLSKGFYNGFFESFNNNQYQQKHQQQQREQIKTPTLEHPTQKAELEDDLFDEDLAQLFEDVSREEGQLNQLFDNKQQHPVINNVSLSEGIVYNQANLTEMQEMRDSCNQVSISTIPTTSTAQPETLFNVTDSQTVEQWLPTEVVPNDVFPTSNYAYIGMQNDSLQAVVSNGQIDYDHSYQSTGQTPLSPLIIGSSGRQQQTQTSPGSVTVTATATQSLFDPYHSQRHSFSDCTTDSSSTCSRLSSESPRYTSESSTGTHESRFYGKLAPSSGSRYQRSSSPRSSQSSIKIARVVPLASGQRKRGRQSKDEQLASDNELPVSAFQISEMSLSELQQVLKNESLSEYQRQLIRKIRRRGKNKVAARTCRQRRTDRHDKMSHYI
Type of assay: functional.

Assay [14] in a line: inhibitors of intracellular T. cruzi replication, confirmation, NIH3T3 host cells, beta-gal luminescence (AID 2044).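 Further: intracellular parasites grown in NIH/3T3 mouse fibroblasts as host cells; luminescent beta-galactosidase reporter signal from transgenic T. cruzi replicating inside host cells; inhibitors lower the luminescence signal.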 Type of assay: functional, cell-based.
A short description of assay [15]: miR-122 activators in hepatoma reporter cells, dose response, cell-based, Huh7 psiCHECK-miR122, Renilla luciferase, cherry-picked (AID 651956).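 Further: huh7 hepatoma cells stably carrying a psiCHECK-2 miR-122 sensor plasmid; renilla luciferase signal reporting endogenous miR-122 activity after 48 h compound exposure.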 Type of assay: functional.
Assay [16] has as its target Ras and Rab interactor 1/Tyrosine-protein kinase ABL1 (Homo sapiens, UniProt P00519+Q13671). Type of assay: functional.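 Further: biochemical TR-FRET dose-response test measuring inhibition of binding between Rin1 and Abl proteins.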
The target of assay [17] is Beta-galactosidase (Escherichia coli, UniProt Q8VNN2). Put plainly: Dose response counterscreen for EBI2 assay utilizing the enzyme, b-galactosidase. The class given is functional.
Assay [18] can be described thus: Fluorescence-based cell-based high throughput dose response assay for inhibitors of the interaction of nucleotide-binding oligomerization domain containing 2 (NOD2) and the receptor-interacting serine-threonine kinase 2 (RIPK2). The class given is functional. The following applies: Homo sapiens.
For assay [19], the target named is Beta Lactamase (Pseudomonas aeruginosa, UniProt Q932Y6). The assay is described as follows: beta-lactamase reporter inhibitor potency, dose response, artefact control for NOD2-RIPK2 interaction inhibitor project, BLA reporter cells, FRET fluorescence (AID 651552). Type of assay: functional, cell-based.
The target in assay [20] is Melanocortin receptor 4 (Homo sapiens, UniProt P32245). Type of assay: functional, cell-based.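 Further: Cell-based assay with luminescence read-out, confirmatory dose-response testing for agonist activity of biased ligands at MC4R; human U2OS cells with tagged receptor and beta-arrestin; potency of agonists that increase receptor coupling to beta-arrestin.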
The target in assay [21] is Hepatocyte nuclear factor 4-alpha (Homo sapiens, UniProt P41235). Type of assay: functional, cell-based.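 Further: biochemical luminescence-based dose-response counterscreen measuring inhibition of HNF4 dimerization, run alongside a screen for blockers of ABHD5–perilipin-5 interaction; split luciferase complementation of HNF4 fusion proteins in cell lysate measuring dimerization.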
A short description of assay [22]: cells. The class given is functional, cell-based.
In assay [23] the target is T5, Nuclear receptor subfamily 0 group B member 1 (Homo sapiens, UniProt P51843).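 Further: HEK293T cells transfected with SF-1 and DAX-1 plus StAR promoter luciferase reporter.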
T5 sequence (P51843 whole entry): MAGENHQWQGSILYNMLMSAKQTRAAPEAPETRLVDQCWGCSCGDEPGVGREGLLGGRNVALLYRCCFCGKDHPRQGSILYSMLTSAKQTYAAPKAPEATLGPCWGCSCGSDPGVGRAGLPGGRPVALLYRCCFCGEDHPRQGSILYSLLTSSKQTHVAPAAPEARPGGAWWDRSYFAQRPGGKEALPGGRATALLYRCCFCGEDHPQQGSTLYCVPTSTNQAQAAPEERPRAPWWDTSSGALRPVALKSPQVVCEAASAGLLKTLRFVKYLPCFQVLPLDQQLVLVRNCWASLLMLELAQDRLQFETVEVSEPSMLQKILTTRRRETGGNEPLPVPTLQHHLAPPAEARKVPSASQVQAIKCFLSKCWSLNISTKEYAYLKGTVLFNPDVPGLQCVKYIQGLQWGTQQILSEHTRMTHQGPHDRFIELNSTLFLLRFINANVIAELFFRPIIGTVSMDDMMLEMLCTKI
Type of assay: functional, cell-based.

Sequence of Tyrosine-protein phosphatase non-receptor type 11 (Q06124 whole entry): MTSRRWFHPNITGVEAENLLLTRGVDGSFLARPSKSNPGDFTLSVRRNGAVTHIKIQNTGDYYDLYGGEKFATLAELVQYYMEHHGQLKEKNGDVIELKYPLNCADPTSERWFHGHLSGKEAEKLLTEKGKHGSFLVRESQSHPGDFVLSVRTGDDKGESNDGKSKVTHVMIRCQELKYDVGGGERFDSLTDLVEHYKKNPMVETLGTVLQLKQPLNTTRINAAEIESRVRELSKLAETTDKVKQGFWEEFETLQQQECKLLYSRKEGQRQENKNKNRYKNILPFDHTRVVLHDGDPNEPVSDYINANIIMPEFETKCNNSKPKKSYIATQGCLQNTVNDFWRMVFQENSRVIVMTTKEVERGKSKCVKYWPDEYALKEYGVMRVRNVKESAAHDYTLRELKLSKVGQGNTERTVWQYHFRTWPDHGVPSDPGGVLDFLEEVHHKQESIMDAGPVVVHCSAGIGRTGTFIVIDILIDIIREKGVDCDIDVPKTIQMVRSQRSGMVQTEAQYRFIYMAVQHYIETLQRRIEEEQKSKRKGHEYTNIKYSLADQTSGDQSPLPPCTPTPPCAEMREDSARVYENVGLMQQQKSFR
Sequence of Beta-galactosidase (Q8VNN2 whole entry, the tested form may be a part): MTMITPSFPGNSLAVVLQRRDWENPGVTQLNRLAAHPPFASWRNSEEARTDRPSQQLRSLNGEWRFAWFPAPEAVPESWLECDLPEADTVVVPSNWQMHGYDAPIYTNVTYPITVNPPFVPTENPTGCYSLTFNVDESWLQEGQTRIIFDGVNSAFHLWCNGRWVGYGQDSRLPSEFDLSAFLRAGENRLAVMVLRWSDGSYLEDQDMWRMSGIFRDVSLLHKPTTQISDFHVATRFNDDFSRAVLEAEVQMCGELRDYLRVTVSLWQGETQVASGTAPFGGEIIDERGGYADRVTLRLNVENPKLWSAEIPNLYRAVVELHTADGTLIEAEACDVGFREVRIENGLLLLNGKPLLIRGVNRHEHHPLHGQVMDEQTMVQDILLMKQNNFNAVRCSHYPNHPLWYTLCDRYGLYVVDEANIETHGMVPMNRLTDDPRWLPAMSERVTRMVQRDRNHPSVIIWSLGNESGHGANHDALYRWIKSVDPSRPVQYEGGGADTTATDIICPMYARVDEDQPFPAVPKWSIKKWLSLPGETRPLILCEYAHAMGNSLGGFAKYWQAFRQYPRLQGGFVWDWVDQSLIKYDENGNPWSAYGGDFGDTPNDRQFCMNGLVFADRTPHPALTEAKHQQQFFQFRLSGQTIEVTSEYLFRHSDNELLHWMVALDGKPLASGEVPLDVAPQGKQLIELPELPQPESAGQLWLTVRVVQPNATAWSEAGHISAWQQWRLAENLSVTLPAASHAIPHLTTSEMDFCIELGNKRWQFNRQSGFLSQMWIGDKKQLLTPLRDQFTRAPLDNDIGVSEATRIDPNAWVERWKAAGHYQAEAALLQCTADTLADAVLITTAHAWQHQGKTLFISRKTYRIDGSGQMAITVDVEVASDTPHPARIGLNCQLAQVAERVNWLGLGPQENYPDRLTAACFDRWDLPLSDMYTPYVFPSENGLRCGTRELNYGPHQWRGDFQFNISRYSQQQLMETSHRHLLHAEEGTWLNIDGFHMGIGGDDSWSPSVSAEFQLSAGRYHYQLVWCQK
Sequence of Tyrosine-protein phosphatase non-receptor type 5 (P54829 whole entry): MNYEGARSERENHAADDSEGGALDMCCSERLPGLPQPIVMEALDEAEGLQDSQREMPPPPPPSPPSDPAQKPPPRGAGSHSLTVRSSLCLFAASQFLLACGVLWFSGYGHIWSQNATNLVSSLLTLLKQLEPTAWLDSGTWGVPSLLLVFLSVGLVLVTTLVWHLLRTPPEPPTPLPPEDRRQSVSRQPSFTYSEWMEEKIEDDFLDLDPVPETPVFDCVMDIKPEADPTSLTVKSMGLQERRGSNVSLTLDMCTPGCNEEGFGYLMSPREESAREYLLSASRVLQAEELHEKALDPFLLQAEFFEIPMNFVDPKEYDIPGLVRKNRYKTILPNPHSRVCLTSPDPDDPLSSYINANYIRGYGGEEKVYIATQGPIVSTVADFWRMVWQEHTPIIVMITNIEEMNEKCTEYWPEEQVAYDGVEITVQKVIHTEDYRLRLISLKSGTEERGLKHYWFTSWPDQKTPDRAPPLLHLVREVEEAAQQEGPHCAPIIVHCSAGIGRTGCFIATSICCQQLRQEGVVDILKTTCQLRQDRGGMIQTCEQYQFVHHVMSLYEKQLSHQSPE
Sequence of Hepatocyte nuclear factor 4-alpha (P41235 whole entry, the tested form may be a part): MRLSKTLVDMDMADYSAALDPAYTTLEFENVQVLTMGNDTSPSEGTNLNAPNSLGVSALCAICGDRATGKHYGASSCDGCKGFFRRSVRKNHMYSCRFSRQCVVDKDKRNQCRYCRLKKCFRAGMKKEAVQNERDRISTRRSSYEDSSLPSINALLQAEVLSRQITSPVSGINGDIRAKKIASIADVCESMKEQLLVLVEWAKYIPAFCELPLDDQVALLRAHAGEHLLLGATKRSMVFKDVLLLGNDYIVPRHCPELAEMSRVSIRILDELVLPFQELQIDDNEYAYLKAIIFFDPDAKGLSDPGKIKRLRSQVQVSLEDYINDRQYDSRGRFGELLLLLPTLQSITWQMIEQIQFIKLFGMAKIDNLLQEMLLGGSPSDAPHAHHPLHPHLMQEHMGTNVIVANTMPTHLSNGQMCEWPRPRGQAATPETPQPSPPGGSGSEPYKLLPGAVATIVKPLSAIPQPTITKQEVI
Sequence of Dual specificity protein phosphatase 3 (P51452 whole entry): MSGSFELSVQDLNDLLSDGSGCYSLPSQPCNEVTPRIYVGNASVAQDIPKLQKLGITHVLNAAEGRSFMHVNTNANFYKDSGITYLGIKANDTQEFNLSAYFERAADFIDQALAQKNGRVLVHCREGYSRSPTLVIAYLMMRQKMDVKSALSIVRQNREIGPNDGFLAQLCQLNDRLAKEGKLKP
Sequence of FAD-linked sulfhydryl oxidase ALR (P55789 whole entry): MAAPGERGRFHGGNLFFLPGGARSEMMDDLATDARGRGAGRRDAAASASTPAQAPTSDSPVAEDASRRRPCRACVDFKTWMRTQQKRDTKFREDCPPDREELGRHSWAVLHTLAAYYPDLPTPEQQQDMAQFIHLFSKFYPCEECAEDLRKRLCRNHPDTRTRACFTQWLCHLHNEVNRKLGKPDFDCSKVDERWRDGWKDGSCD
Sequence of DNA repair and recombination protein RAD54-like (Q92698 whole entry): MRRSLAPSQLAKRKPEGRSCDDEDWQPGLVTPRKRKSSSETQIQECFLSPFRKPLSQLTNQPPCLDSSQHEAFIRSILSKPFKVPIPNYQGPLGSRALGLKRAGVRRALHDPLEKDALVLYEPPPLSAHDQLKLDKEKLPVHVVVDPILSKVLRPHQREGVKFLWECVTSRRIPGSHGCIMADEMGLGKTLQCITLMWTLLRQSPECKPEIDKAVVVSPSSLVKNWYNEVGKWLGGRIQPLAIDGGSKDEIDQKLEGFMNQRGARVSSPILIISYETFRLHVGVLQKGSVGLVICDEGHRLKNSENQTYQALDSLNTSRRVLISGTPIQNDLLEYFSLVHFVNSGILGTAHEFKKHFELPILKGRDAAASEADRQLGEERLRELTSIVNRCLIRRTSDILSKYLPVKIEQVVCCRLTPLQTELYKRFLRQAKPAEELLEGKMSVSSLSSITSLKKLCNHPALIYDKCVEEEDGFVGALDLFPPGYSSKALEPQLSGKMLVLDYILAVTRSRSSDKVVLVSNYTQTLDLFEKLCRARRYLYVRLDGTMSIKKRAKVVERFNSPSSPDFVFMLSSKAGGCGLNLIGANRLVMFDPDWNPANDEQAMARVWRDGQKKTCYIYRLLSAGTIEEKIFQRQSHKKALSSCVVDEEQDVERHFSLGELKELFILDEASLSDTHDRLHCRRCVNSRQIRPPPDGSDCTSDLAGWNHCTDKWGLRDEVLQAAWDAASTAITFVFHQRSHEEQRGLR
Sequence of Large T antigen (P03070 whole entry): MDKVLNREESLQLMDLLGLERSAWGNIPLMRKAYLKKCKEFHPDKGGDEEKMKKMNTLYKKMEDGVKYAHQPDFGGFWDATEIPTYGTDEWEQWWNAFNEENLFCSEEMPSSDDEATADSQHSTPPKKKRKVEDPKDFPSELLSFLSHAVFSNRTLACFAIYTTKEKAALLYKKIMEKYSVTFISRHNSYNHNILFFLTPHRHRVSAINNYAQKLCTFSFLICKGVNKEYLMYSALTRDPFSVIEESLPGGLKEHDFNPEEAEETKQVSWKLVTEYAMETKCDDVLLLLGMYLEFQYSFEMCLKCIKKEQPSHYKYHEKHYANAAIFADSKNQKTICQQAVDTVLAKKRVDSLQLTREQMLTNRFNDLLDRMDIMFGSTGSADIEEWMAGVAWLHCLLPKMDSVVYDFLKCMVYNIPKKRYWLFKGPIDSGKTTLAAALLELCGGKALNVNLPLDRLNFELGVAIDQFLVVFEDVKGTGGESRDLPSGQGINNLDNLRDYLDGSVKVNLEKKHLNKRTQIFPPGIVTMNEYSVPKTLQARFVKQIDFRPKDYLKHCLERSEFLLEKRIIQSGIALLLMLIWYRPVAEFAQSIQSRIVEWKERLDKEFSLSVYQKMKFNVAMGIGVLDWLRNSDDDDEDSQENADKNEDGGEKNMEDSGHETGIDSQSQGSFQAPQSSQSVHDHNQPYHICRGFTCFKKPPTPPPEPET
Sequence of Beta Lactamase (Q932Y6 whole entry): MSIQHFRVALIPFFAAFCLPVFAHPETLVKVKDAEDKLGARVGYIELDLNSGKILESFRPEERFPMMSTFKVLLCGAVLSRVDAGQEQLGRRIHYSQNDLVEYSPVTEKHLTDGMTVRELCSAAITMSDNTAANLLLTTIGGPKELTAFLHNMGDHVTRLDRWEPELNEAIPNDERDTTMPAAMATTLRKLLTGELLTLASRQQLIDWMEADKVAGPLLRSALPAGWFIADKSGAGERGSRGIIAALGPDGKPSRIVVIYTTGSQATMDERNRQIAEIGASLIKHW

For orientation: AC50 means the midpoint of the concentration-response curve, whichever way the signal moves. For `Cc1ccc(S(=O)(=O)N2[C@@H](c3ccc(Cl)cc3)C(C(=O)O)=CC[C@H]2c2ccc(C(C)C)cc2)cc1`, the IC50 in assay [1] is 5.56 µM (active); in assay [2], 60.4 µM (active). Also, the concentration at half-maximal activity (AC50) in assay [3] was 10.3 µM (active).

In the case of `COc1cc(/C=C2/SC(=S)N(CC(=O)O)C2=O)ccc1OCC(=O)Nc1ccc(C)c(C)c1`, the IC50 is 3.64 µM (active) in assay [4], 6.72 µM (active) in assay [5], 4.32 µM (active) in [6] and 16.5 µM (active) in assay [7].

With `COc1cccc(-c2nc(SC)nc3sc(C(=O)NC(C)(C)C)c(N)c23)c1`, the IC50 was 19.1 µM (active) in assay [8] and 15.2 µM (active) in assay [9].

For `O=C(NN=Cc1ccccc1O)c1cccc([N+](=O)[O-])c1`, the IC50 in assay [4] was 2.39 µM (active); in [5], 8.95 µM (active); in [6], 3.13 µM (active); in [7], > 100 µM (inactive).

The term EC50 denotes the concentration at which the effect is half-maximal. In the case of `Oc1cccc(Nc2c3ccccc3nc3ccccc23)c1`, the EC50 was 21.8 µM (active) in assay [10] and 672 nM (active) in assay [14]. The AC50 in [11] is 3.09 µM (active); in assay [12], 4.49 µM (active); in [3], 2.66 µM (active). The IC50 in assay [13] is > 100 µM (inactive).

Consider `O=C(O)CN1C(=O)S/C(=C2/C(=O)Nc3ccccc32)C1=O`, for which the IC50 was 13.7 µM (active) in assay [8] and 3.7 µM (active) in assay [9].

Consider `Cc1ccc(-n2ncc(C(=O)Nc3cc(Cl)ccc3C)c2C2CCNCC2)cc1C`, for which the concentration at half-maximal activity (AC50) in [15] is 51.5 µM (active).

For the compound `OC[C@@H]1CN(Cc2ccc(Cl)cc2)C[C@H](n2cnc3c(NC4CC4)ncnc32)O1`, the IC50 in [16] is 37.2 µM (inactive); in assay [17], > 80 µM (inactive).

On to `C[C@@H]1CN([C@H](C)CO)S(=O)(=O)c2ccc(C3=CCCC3)cc2O[C@@H]1CN(C)C(=O)c1cnccn1`, for which the AC50 in assay [15] is 13.5 µM (active).

As for `CCCCCN1C(=O)c2cc(OC)ccc2[C@@]2(C(=O)OCC)Cc3cc(Cl)ccc3[C@@H]12`, the results for the IC50 in assay [18] and in assay [19] were 2.04 µM (active) and 18.8 µM (inactive), respectively.

For `Cc1ccc(O)c(C(=O)/C=C/c2ccc3c(c2)OCCCO3)c1`, the EC50 in assay [20] is > 89.2 µM (inactive). Besides, in [21], the IC50 was 6.11 µM (active).

Regarding `O=C(/C=C/c1ccc2c(c1)OCCCO2)c1ccccc1O`, the IC50 in assay [21] was 5.6 µM (active).

Consider `O=C(COc1ccc(Cl)cc1)N1CCN(Cc2ccccc2)CC1`, for which the IC50 in assay [17] was > 80 µM (inactive).

`COc1ccc(-c2cc(NC=O)c3ncc(-c4ccc(OC)c(OC)c4)n3c2)c(OC)c1`: the IC50 in assay [22] and in assay [23] was > 67.6 µM (inactive) throughout.
